What all share (assay type): in vivo, human
In data set [1] the test system is overweight or obese subjects with prediabetes or mild type 2 diabetes. The data set can be described thus: Frequently sampled intravenous glucose tolerance test (FSIVGTT). The conditions noted are these: Ln(FFA) slope / AUC insulin 0-90 min of FSIVGTT; 50 mg every 6 hours for 9 days; mean±SD, n=16. As to the method:
A randomized, placebo-controlled, double-blind crossover trial was conducted to evaluate the use of an anti-glucocorticoid as a means for ameliorating insulin resistance. Mifepristone, 50 mg, or a placebo, was administered every six hours for nine days to sixteen overweight or obese (BMI 25-37 kg/m^2) subjects (seven women). Participant ages ranged from 48 to 64 years. Ten had prediabetes and six had mild diabetes type II (HgbA1c less than 7%). Treatment of the glucose disorder with diet or a stable dose of metformin (used by two patients) was maintained for three (3) months before the study. The interventions were nine days of mifepristone or placebo treatment followed by a six (6) to eight (8) week wash out and cross over to the other arm. At baseline and at the end of each treatment period, parameters of insulin sensitivity were assessed by a frequently sampled intravenous glucose tolerance test (FSIVGTT) and an oral glucose tolerance test (OGTT). […] Adipo-IR, a surrogate measure of adipocyte insulin resistance, was calculated by multiplying fasting concentrations of free fatty acids and insulin (mmol×pmol/L). […]
Insulin sensitivity index, SI, was determined from the minimal model using data from the insulin-modified FSIVGTT as previously described (version 6.02; MinMOD Millenium, Los Angeles, Calif.). […]

Data set [2] deals with hypothalamic-pituitary-adrenal axis. In words: 24-hour profile of ACTH and cortisol. The method, then:
(§1) To reduce potential variability associated with estrogen in premenopausal women, testing was performed in the early follicular phase (days 1-7 of menstrual cycle). Baseline height and weight were measured after an overnight fast. Subjects received an isocaloric regular diet during the inpatient part of the study, and those on metformin took the same dose throughout the study. Baseline testing took place took place over three inpatient days at the NIH Clinical Center, during which fasting blood was drawn, 24-hour urine was collected, 24-hour serial blood draws were obtained, and patients received both a […] (FSIVGTT) and a 75-g oral glucose tolerance test (OGTT). Subjects were then randomized to receive placebo or mifepristone for 9 days, of which the first 6 days the subjects returned home, and the final 3 days subjects underwent the same metabolic testing as during the baseline period. Subjects randomized to the mifepristone treatment arm were instructed to take one capsule (50 mg) every 6 hours (200 mg/day) over the course of 9 days. The placebo treatment arm received the same instructions to take one capsule every 6 hours over the course of the 9-day treatment period. Following the completion of the post-drug testing, subjects entered a 6-8 week washout period, after which they were crossed over to the other treatment arm, serving as their own controls for the study drug treatments.
Data shown are mean±SEM with p values provided for the effects of treatment group, time, and the treatment-time interaction, which was obtained with repeated-measures ANOVA with post-hoc Bonferroni's test. Tukey box and whisker plots show ACTH (B) and cortisol (D) area under the curve for the 24-hour period. Top and bottom box limits represent the 75th and 25th percentile, respectively; midlines represent the median, and top and bottom whiskers represent the 75th percentile plus 1.5 of the interquartile range (IQR) and the 25th percentile minus 1.5 IQR, respectively. Post-treatment values were adjusted for baseline and treatment group using mixed-model regression. P values indicate significance for comparisons between mifepristone and placebo.

Data set [3] in a line: Body weight, blood pressure and serum lipids after 9-day administration. The conditions noted are these: 50 mg every 6 hours for 9 days; mean±SD, n=16. As to the method: as §1
Changes in body weight, BP and serum lipid concentrations for each study subject were evaluated at baseline and after 9-day administration of mifepristone or placebo, There were no significant differences observed in body weight or BMI between the treatment arms. BP was higher after mifepristone treatment for both systolic and diastolic values.

Data set [4] is described as follows: Plasma hormone levels (testosterone, androstenedione, DHEA sulfate). The conditions noted are these: 50 mg every 6 hours for 9 days, mean±SD. As to the method: as §1
Setting [5] is: 50 mg every 6 hours for 9 days, all subjects.

For the compound `CC#C[C@]1(O)CC[C@H]2[C@@H]3CCC4=CC(=O)CCC4=C3[C@@H](c3ccc(N(C)C)cc3)C[C@@]21C` [Mifepristone, 11beta-[p-(dimethylamino)phenyl]-17alpha-(1-propynl)estra-4,9-dien-17beta-ol-3-one], in data set [1], the “Adipose-tissue Insulin Sensitivity Index (Adipose SI)” value was 61.7±32.9. In addition, in data set [2] (setting [5]), the “ACTH area under the curve (AUC), 24-hour” value came to 574.5 ± 260.8 pg·min/mL and the “Cortisol area under the curve (AUC), 24-hour” value is 255.4 ± 61.9 µg·min/dL. In addition, in data set [2] (mifepristone arm, subgroup with higher 24-hr UFC), the “Serum cortisol AUC, subjects with higher 24-hr UFC” value was 284.9 ± 39.9 µg·min/dL. Further, the “Serum cortisol AUC, subjects with normal 24-hr UFC” value in data set [2] (mifepristone arm, subgroup with normal 24-hr UFC) amounted to 229.8 ± 68.5 µg·min/dL. In data set [3], the “Body-Mass Index” value turned out to be 32.2 ± 3.9 kg/m^2, the “Diastolic Blood Pressure” value was found to be 77 ± 9.2 mmHg, the “HDL Cholesterol” value was found to be 41.3 ± 11.9 mg/dL and the “LDL Cholesterol” value is given as 97.1 ± 34.6 mg/dL. For the same compound, in data set [3], the “Systolic Blood Pressure” value was found to be 130 ± 13 mmHg, the “Total Cholesterol” value turned out to be 163.6 ± 419 mg/dL and the Triglycerides is reported as 125.6 ± 65.6 mg/dL. Besides, in data set [4] (n=16), the Androstenedione stood at 110 ± 64.7 ng/dL and the “DHEA Sulfate” value is 1.04 ± 0.64 µg/mL. Also, in data set [4] (male subjects), the “Total testosterone (male)” value turned out to be 235.2 ± 87.5 ng/dL.
